Earlier results as cited in PMC9600270 (Cancers, 2022).
Several values for one entry are separate records, joined by “and”; a condition that tells them apart may be missing. Equal entries are not always repeated. Bridges are numbered along the chain shown (N, C = ends). Where no end group is shown, it is not given here.

Columns and labels:
RMS mouse xenografts = tested on: RMS mouse xenografts; parameters: method as in PMID 28447920; conditions: TmR-targeted vincristine-loaded liposomes
RMS cells = conditions: TmR-targeted vincristine-loaded liposomes
From the text: We previously selected RMS-targeting peptides by in vitro and in vivo phage display and tested them for their potential to increase vincristine-loaded liposomes’ accumulation in RMS mouse xenografts. […] We hypothesized that a targeting peptide with a stronger binding to RMS might be needed to achieve increased accumulation in RMS tumors in vivo. Here, we selected from the literature peptides binding to receptors k ... || We previously tested the peptide TmR for its potential to increase vincristine-loaded liposomes’ accumulation in RMS mouse xenografts. […] Here, we aimed at selecting a peptide with stronger binding to RMS cells than TmR, and F3 peptide bound to the four RMS cell lines tested 3- to 5-fold more than TmR peptide. Importantly, F3 pe ...

Sequence: KRDRGGGCMGTINTRTRRC (disulfide 8-19 (inferred)) [TmR, Furin-targeting RMS peptide, modified version of RMS-P3]
- Tumor accumulation in vivo compared to non-targeted liposomes (RMS mouse xenografts): did not further increase
- Increase of RMS binding of liposomes in vitro (RMS cells): 5.4 fold and 5 fold
